Reference: ChEMBL document CHEMBL6153091, “Cytotoxic Stilbenoids, Hetero- and Homodimers of Homoisoflavonoids from Prospero autumnale” (J Nat Prod, 2025)
Active and inactive are the calls of the source.

Tests used:
Format in all cases: functional, cell-based
MDA-MB-231 [1] = assay: Induction of cell cycle arrest in human MDA-MB-231 cells assessed as accumulation of cells at G0/G1 phase incubated for 48 hrs by flow cytometry
LoVo [2] = assay: Induction of cell cycle arrest in human LoVo cells assessed as accumulation of cells at G0/G1 phase incubated for 48 hrs by flow cytometry
MCF7 [3] = assay: Induction of necrosis in human MCF7 cells at IC50 concentration incubated for 48 hrs by Annexin V-FITC/PI staining based flow cytometry
MCF7 [4] = assay: Induction of apoptosis in human MCF7 cells at IC50 concentration incubated for 48 hrs by Annexin V-FITC/PI staining based flow cytometry
HepG2 [5] = assay: Induction of necrosis in human HepG2 cells at IC50 concentration incubated for 48 hrs by Annexin V-FITC/PI staining based flow cytometry
HCT-116 [6] = assay: Induction of cell cycle arrest in human HCT-116 cells assessed as accumulation of cells at G0/G1 phase incubated for 48 hrs by flow cytometry
LoVo [7] = assay: Induction of apoptosis in human LoVo cells at IC50 concentration incubated for 48 hrs by Annexin V-FITC/PI staining based flow cytometry
HCT-116 [8] = assay: Induction of apoptosis in human HCT-116 cells at IC50 concentration incubated for 48 hrs by Annexin V-FITC/PI staining based flow cytometry
LoVo [9] = assay: Induction of necrosis in human LoVo cells at IC50 concentration incubated for 48 hrs by Annexin V-FITC/PI staining based flow cytometry
HepG2 [10] = assay: Induction of cell cycle arrest in human HepG2 cells assessed as decrease in accumulation of cells at S phase incubated for 48 hrs by flow cytometry
HCT-116 [11] = assay: Induction of necrosis in human HCT-116 cells at IC50 concentration incubated for 48 hrs by Annexin V-FITC/PI staining based flow cytometry
HepG2 [12] = assay: Induction of late apoptosis in human HepG2 cells at IC50 concentration incubated for 48 hrs by Annexin V-FITC/PI staining based flow cytometry
MCF7 [13] = assay: Induction of cell cycle arrest in human MCF7 cells assessed as accumulation of cells at G0/G1 phase incubated for 48 hrs by flow cytometry
Hep 3B2 [14] = assay: Induction of early apoptosis in human Hep3B cells at IC50 concentration incubated for 48 hrs by Annexin V-FITC/PI staining based flow cytometry
Hep 3B2 [15] = assay: Induction of cell cycle arrest in human Hep3B cells assessed as decrease in accumulation of cells at G0/G1 phase incubated for 48 hrs by flow cytometry
Hep 3B2 [16] = assay: Induction of cell cycle arrest in human Hep3B cells assessed as decrease in accumulation of cells at S phase incubated for 48 hrs by flow cytometry
Hep 3B2 [17] = assay: Induction of cell cycle arrest in human Hep3B cells assessed as increase in accumulation of cells at G2/M phase incubated for 48 hrs by flow cytometry
Hep 3B2 [18] = assay: Induction of necrosis in human Hep3B cells at IC50 concentration incubated for 48 hrs by Annexin V-FITC/PI staining based flow cytometry
PC-3 [19] = assay: Induction of necrosis in human PC-3 cells at IC50 concentration incubated for 48 hrs by Annexin V-FITC/PI staining based flow cytometry
DU-145 [20] = assay: Induction of apoptosis in human DU-145 cells at IC50 concentration incubated for 48 hrs by Annexin V-FITC/PI staining based flow cytometry
DU-145 [21] = assay: Induction of cell cycle arrest in human DU-145 cells assessed as accumulation of cells at S phase incubated for 48 hrs by flow cytometry
DU-145 [22] = assay: Induction of cell cycle arrest in human DU-145 cells assessed as accumulation of cells at G2/M phase incubated for 48 hrs by flow cytometry
PC-3 [23] = assay: Induction of cell cycle arrest in human PC-3 cells assessed as accumulation of cells at S phase incubated for 48 hrs by flow cytometry
LoVo [24] = assay: Induction of cell cycle arrest in human LoVo cells assessed as accumulation of cells at S phase incubated for 48 hrs by flow cytometry
PC-3 [25] = assay: Induction of apoptosis in human PC-3 cells at IC50 concentration incubated for 48 hrs by Annexin V-FITC/PI staining based flow cytometry
DU-145 [26] = assay: Induction of necrosis in human DU-145 cells at IC50 concentration incubated for 48 hrs by Annexin V-FITC/PI staining based flow cytometry
MDA-MB-231 [27] = assay: Induction of cell cycle arrest in human MDA-MB-231 cells assessed as accumulation of cells at S phase incubated for 48 hrs by flow cytometry
LoVo [28] = assay: Induction of cell cycle arrest in human LoVo cells assessed as decrease in accumulation of cells at G2/M phase incubated for 48 hrs by flow cytometry
MDA-MB-231 [29] = assay: Induction of apoptosis in human MDA-MB-231 cells at IC50 concentration incubated for 48 hrs by Annexin V-FITC/PI staining based flow cytometry
MDA-MB-231 [30] = assay: Induction of necrosis in human MDA-MB-231 cells at IC50 concentration incubated for 48 hrs by Annexin V-FITC/PI staining based flow cytometry
MDA-MB-231 [31] = assay: Induction of cell cycle arrest in human MDA-MB-231 cells assessed as decrease in accumulation of cells at G2/M phase incubated for 48 hrs by flow cytometry

Measured: Activity

COc1ccc([C@H]2c3c(/C=C/c4ccc(O)cc4)cc(OC)c(C)c3O[C@@H]3Oc4cc(O)cc(O)c4C(=O)[C@@H]32)cc1
active: MDA-MB-231 [1] | LoVo [2] | MCF7 [3] | MCF7 [4] | HepG2 [5] | HCT-116 [6] | LoVo [7] | HCT-116 [8] | LoVo [9] | HepG2 [10] | HCT-116 [11] | HepG2 [12] | MCF7 [13]

O=C1/C(=C/c2ccc(O)cc2)COc2cc(O)cc(O)c21
active: Hep 3B2 [14] | Hep 3B2 [15] | Hep 3B2 [16] | Hep 3B2 [17] | Hep 3B2 [18]

COc1cc(/C=C/c2ccc(O)cc2)cc(O)c1C
active: PC-3 [19] | LoVo [7] | DU-145 [20] | DU-145 [21] | LoVo [9] | DU-145 [22] | PC-3 [23] | LoVo [24] | PC-3 [25] | DU-145 [26]

COc1cc(O)cc(/C=C/c2ccc(O)cc2)c1
active: MDA-MB-231 [27] | LoVo [7] | LoVo [28] | LoVo [9] | MDA-MB-231 [29] | LoVo [24] | MDA-MB-231 [30] | MDA-MB-231 [31]
